Measured values reported in patent US8476197B2, “Aminopropenoates as fungicides” (priority 2009, dated 2013).
Marks after values point to notes of the source that are not given here.

Settings: pH 2.7

**Q.** With CCNC(=O)C(C#N)=C(NC(C)C(C)C)c1ccnc(Br)c1F (stereo not shown) [Compound 1323] as the compound, how does the “Log P” value read?
**A.** 3.46^[a]

**Q.** Which “Log P” value does the source give for CCOC(=O)C(C#N)=C(NC(C)C(=O)NC)c1ccnc(Cl)c1F (stereo not shown) [Compound 1324] here?
**A.** 2.15^[a]

**Q.** For CC#CC(C)NC(=C(C#N)C(=O)OCC)c1ccnc(Cl)c1F (stereo not shown) [Compound 1325], which “Log P” value is on record?
**A.** 3.39^[a]

**Q.** For CC(C)C(C)NC(=C(C#N)C(=O)N1CCOCC1)c1cn(C)nc1C(F)F (stereo not shown) [Compound 1326], which “Log P” value is on record?
**A.** 2.43^[a]

**Q.** For CC(NC(=C(C#N)C(=O)N1CCOCC1)c1cn(C)nc1C(F)F)c1nccs1 (stereo not shown) [Compound 1327], which “Log P” value is on record?
**A.** 1.79^[a]

**Q.** For CC(NC(=C(C#N)C(=O)N1CCOCC1)c1cn(C)nc1C(F)F)c1ccccn1 (stereo not shown) [Compound 1328], which “Log P” value is on record?
**A.** 1.63^[a]

**Q.** With CCNC(=O)C(C#N)=C(NC(C)c1ccccn1)c1ccnc(Cl)c1F (stereo not shown) [Compound 1329] as the compound, how does the “Log P” value read?
**A.** 2.5^[a]

**Q.** For CCOC(=O)C(C#N)=C(NC(C)c1nccs1)c1ccnc(Br)c1F (stereo not shown) [Compound 1330], which “Log P” value is on record?
**A.** 3^[a]

**Q.** With CCOC(=O)C(C#N)=C(NC(C)c1nccs1)c1ccnc(SC)c1Cl (stereo not shown) [Compound 1331] as the compound, how does the “Log P” value read?
**A.** 3.53^[a]

**Q.** With CCOC(=O)C(C#N)=C(NC(CC)COC)c1cn(C)nc1C(F)F (stereo not shown) [Compound 1332] as the compound, how does the “Log P” value read?
**A.** 2.71^[a]

**Q.** Which “Log P” value does the source give for CCOC(=O)C(C#N)=C(NC1CCCCC1)c1cn(C)nc1C(F)F [Compound 1333] here?
**A.** 3.29^[a]

**Q.** With CCOC(=O)C(C#N)=C(NC(CC)CN(C)C)c1cn(C)nc1C(F)F (stereo not shown) [Compound 1334] as the compound, how does the “Log P” value read?
**A.** 1.22^[a]

**Q.** With CCCC(CO)NC(=C(C#N)C(=O)OCC)c1cn(C)nc1C(F)F (stereo not shown) [Compound 1335] as the compound, how does the “Log P” value read?
**A.** 2.28^[a]

**Q.** With CC#CC1(NC(=C(C#N)C(=O)OCC)c2cn(C)nc2C(F)F)CCCCC1 [Compound 1336] as the compound, how does the “Log P” value read?
**A.** 3.71^[a]

**Q.** With CCOC(=O)C(C#N)=C(NC1CCC(OCC)CC1)c1cn(C)nc1C(F)F (stereo not shown) [Compound 1337] as the compound, how does the “Log P” value read?
**A.** 3.08^[a]

**Q.** For CCOC(=O)C(C#N)=C(NC(CC)CC)c1cn(C)nc1C(F)F [Compound 1338], which “Log P” value is on record?
**A.** 3.15^[a]

**Q.** Which “Log P” value does the source give for CCOC(=O)C(C#N)=C(NC1COC1)c1cn(C)nc1C(F)F [Compound 1339] here?
**A.** 1.79^[a]

**Q.** For CCOC(=O)C(C#N)=C(NCC1(C)CCCO1)c1cn(C)nc1C(F)F (stereo not shown) [Compound 1340], which “Log P” value is on record?
**A.** 2.54^[a]

**Q.** With CCOC(=O)C(C#N)=C(NC(COC)COC)c1cn(C)nc1C(F)F [Compound 1341] as the compound, how does the “Log P” value read?
**A.** 2.42^[a]

**Q.** For CCOC(=O)C(C#N)=C(NC(CC)CC#N)c1cn(C)nc1C(F)F (stereo not shown) [Compound 1342], which “Log P” value is on record?
**A.** 2.39^[a]

**Q.** With CCCC(CC)NC(=C(C#N)C(=O)OCC)c1cn(C)nc1C(F)F (stereo not shown) [Compound 1343] as the compound, how does the “Log P” value read?
**A.** 3.51^[a]

**Q.** With CCOC(=O)C(C#N)=C(NC(C)CC(F)(F)F)c1cn(C)nc1C(F)F (stereo not shown) [Compound 1346] as the compound, how does the “Log P” value read?
**A.** 2.77^[a]

**Q.** With CCOC(=O)C(C#N)=C(NCCOc1ccccc1Br)c1cn(C)nc1C(F)F [Compound 1347] as the compound, how does the “Log P” value read?
**A.** 3.35^[a]

**Q.** With CCOC(=O)C(C#N)=C(NCC(C)c1ccccc1Br)c1cn(C)nc1C(F)F (stereo not shown) [Compound 1348] as the compound, how does the “Log P” value read?
**A.** 3.69^[a]

**Q.** With CCOC(=O)C(C#N)=C(NC(C(=O)OCC)c1ccccc1)c1cn(C)nc1C(F)F (stereo not shown) [Compound 1349] as the compound, how does the “Log P” value read?
**A.** 3.25^[a]

**Q.** Which “Log P” value does the source give for CCOCC(NC(=C(C#N)C(=O)OCC)c1cn(C)nc1C(F)F)C(C)C (stereo not shown) [Compound 1350] here?
**A.** 3.39^[a]

**Q.** With CCOCC(CC)NC(=C(C#N)C(=O)OCC)c1cn(C)nc1C(F)F (stereo not shown) [Compound 1351] as the compound, how does the “Log P” value read?
**A.** 3.08^[a]

**Q.** Which “Log P” value does the source give for CCOC(=O)C(C#N)=C(NC1CCCC1OC)c1cn(C)nc1C(F)F (stereo not shown) [Compound 1352] here?
**A.** 2.78^[a]

**Q.** With CCOC(=O)C(C#N)=C(NC1CCCC1OCC)c1cn(C)nc1C(F)F (stereo not shown) [Compound 1353] as the compound, how does the “Log P” value read?
**A.** 3.21^[a]

**Q.** With CCCC(COCC)NC(=C(C#N)C(=O)OCC)c1cn(C)nc1C(F)F (stereo not shown) [Compound 1354] as the compound, how does the “Log P” value read?
**A.** 3.44^[a]

**Q.** Which “Log P” value does the source give for CCOC(=O)C(C#N)=C(NC1CSC1)c1cn(C)nc1C(F)F [Compound 1355] here?
**A.** 2.54^[a]

**Q.** Which “Log P” value does the source give for CCOC(=O)C(C#N)=C(NC1COC1)c1cccnc1Cl [Compound 1356] here?
**A.** 1.84^[a]

**Q.** For CCOC(=O)C(C#N)=C(NCC1(C)CCCO1)c1cccnc1Cl (stereo not shown) [Compound 1357], which “Log P” value is on record?
**A.** 2.7^[a]

**Q.** For CCOC(=O)C(C#N)=C(NC(COC)COC)c1cccnc1Cl [Compound 1358], which “Log P” value is on record?
**A.** 2.56^[a]

**Q.** With CCOC(=O)C(C#N)=C(NC(CC)CC#N)c1cccnc1Cl (stereo not shown) [Compound 1359] as the compound, how does the “Log P” value read?
**A.** 2.51^[a]

**Q.** For CCOC(=O)C(C#N)=C(NC1(c2ccc(Cl)cc2)CC1)c1cn(C)nc1C(F)F [Compound 1360], which “Log P” value is on record?
**A.** 3.58^[a]

**Q.** Which “Log P” value does the source give for CCOC(=O)C(C#N)=C(NC1(c2cccc(Cl)c2)CC1)c1cn(C)nc1C(F)F [Compound 1361] here?
**A.** 3.51^[a]

**Q.** With CCOC(=O)C(C#N)=C(NC1(c2ccccc2Cl)CC1)c1cn(C)nc1C(F)F [Compound 1362] as the compound, how does the “Log P” value read?
**A.** 3.35^[a]

**Q.** With CCOC(=O)C(C#N)=C(NC(c1ccc(Cl)cc1)C1CC1)c1cn(C)nc1C(F)F (stereo not shown) [Compound 1363] as the compound, how does the “Log P” value read?
**A.** 3.89^[a]

**Q.** Which “Log P” value does the source give for CCOC(=O)C(C#N)=C(NC1(c2ccccc2)CC1)c1cn(C)nc1C(F)F [Compound 1364] here?
**A.** 3.21^[a]

**Q.** For CCOC(=O)C(C#N)=C(NC(C)c1ccccc1C)c1cn(C)nc1C(F)F (stereo not shown) [Compound 1365], which “Log P” value is on record?
**A.** 3.46^[a]

**Q.** With CCOC(=O)C(C#N)=C(NC(C)CC(F)(F)F)c1cccnc1Cl (stereo not shown) [Compound 1366] as the compound, how does the “Log P” value read?
**A.** 2.92^[a]

**Q.** Which “Log P” value does the source give for CCOC(=O)C(C#N)=C(NC(CC)COC)c1cccnc1Cl (stereo not shown) [Compound 1367] here?
**A.** 2.92^[a]

**Q.** Which “Log P” value does the source give for CCCC(CO)NC(=C(C#N)C(=O)OCC)c1cccnc1Cl (stereo not shown) [Compound 1368] here?
**A.** 2.45^[a]

**Q.** For CCOC(=O)C(C#N)=C(NC1CCS(=O)(=O)C1)c1cccnc1Cl (stereo not shown) [Compound 1369], which “Log P” value is on record?
**A.** 1.84^[a]

**Q.** With CCOC(=O)C(C#N)=C(NC1CCC(OCC)CC1)c1cccnc1Cl (stereo not shown) [Compound 1370] as the compound, how does the “Log P” value read?
**A.** 3.31^[a]

**Q.** Which “Log P” value does the source give for CCOC(=O)C(C#N)=C(NC(CC)CC)c1cccnc1Cl [Compound 1371] here?
**A.** 3.35^[a]

**Q.** With CCOCC(CC)NC(=C(C#N)C(=O)OCC)c1cccnc1Cl (stereo not shown) [Compound 1372] as the compound, how does the “Log P” value read?
**A.** 3.31^[a]

**Q.** With CCOC(=O)C(C#N)=C(NC1CCCC1OCC)c1cccnc1Cl (stereo not shown) [Compound 1373] as the compound, how does the “Log P” value read?
**A.** 3.44^[a]

**Q.** Which “Log P” value does the source give for CCOC(=O)C(C#N)=C(NC1CSC1)c1cccnc1Cl [Compound 1374] here?
**A.** 2.64^[a]

**Q.** For CCCC(COC)NC(=C(C#N)C(=O)OCC)c1cccnc1Cl (stereo not shown) [Compound 1375], which “Log P” value is on record?
**A.** 3.31^[a]

**Q.** For CCOCC(COCC)NC(=C(C#N)C(=O)OCC)c1cccnc1Cl [Compound 1376], which “Log P” value is on record?
**A.** 3.33^[a]

**Q.** For CCOC(=O)C(C#N)=C(NCCOc1ccccc1Br)c1cccnc1Cl [Compound 1377], which “Log P” value is on record?
**A.** 3.53^[a]

**Q.** With CCOC(=O)C(C#N)=C(NCC(C)c1ccccc1Br)c1cccnc1Cl (stereo not shown) [Compound 1378] as the compound, how does the “Log P” value read?
**A.** 3.94^[a]

**Q.** For CCOC(=O)C(C#N)=C(NC(C(=O)OCC)c1ccccc1)c1cccnc1Cl (stereo not shown) [Compound 1379], which “Log P” value is on record?
**A.** 3.39^[a]
